B1: OatA (formerly YjgM) (Salmonella enterica subsp. enterica serovar Typhimurium str. LT2) (protein)
chain: MNNVASPTLTVRRITTADNAAIARVIRQVSAEYGLTADKGYTVADPNLDELYQVYSQPGAAYWVVEQNGCVVGGGGVAPLSCSEPDICELQKMYFLPVIRGQGLAKKLALMALDHAREQGFKRCYLETTAFLREAIALYERLGFEHISEPLGCTGHVDCEVRMLKDL

Tests used:
[1] = target: T1, OatA (formerly YjgM) (Salmonella enterica, UniProt Q08021); experiment: isothermal titration calorimetry with purified OatA; type: binding
T1 sequence (Q08021 1-167): B1 chain

[2] = substrate: CC(=O)OC[C@H](N)C(=O)O; experiment: purified protein; type: biochemical, Salmonella enterica; settings: acetyl-CoA positively cooperative (h = […]); no OAS binding seen by ITC under conditions tested, suggesting AcCoA binds before OAS

Molecule	Kd [1] [µM]	Km [2] [µM]
CC(=O)SCCNC(=O)CCNC(=O)[C@H](O)C(C)(C)COP(=O)(O)OP(=O)(O)OC[C@H]1O[C@@H](n2cnc3c(N)ncnc32)[C@H](O)[C@@H]1OP(=O)(O)O [acetyl-CoA]	~22	
B1		740

From article PMC6277577, “In Salmonella enterica, OatA (Formerly YjgM) Uses O-Acetyl-Serine and Acetyl-CoA to Synthesize N,O-Diacetylserine, Which Upregulates Cysteine Biosynthesis” (Frontiers in Microbiology, 2018)
